For experiment [1], the target named is T1, AHR (Homo sapiens, UniProt P35869).
T1 sequence (P35869 11-848): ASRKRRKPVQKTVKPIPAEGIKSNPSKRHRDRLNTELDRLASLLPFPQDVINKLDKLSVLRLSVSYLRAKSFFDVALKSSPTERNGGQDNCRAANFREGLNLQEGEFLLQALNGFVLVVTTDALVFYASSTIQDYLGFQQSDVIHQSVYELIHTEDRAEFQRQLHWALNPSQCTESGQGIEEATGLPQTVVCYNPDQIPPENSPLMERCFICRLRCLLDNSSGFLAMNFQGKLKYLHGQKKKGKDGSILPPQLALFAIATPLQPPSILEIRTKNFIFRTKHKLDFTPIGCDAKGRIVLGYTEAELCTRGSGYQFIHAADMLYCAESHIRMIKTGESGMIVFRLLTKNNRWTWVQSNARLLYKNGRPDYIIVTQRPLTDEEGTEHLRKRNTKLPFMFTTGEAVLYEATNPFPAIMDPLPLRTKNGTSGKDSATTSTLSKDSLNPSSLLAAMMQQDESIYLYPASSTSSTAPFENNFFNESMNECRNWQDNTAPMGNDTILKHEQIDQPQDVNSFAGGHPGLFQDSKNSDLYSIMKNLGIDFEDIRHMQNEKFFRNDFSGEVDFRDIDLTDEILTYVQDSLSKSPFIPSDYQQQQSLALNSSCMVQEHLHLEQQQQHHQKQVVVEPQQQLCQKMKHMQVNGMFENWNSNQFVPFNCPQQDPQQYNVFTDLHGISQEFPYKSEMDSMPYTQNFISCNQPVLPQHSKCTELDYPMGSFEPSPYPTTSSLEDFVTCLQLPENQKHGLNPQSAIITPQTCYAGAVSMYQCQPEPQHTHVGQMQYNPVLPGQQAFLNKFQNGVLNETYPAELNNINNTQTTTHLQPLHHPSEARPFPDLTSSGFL
The experiment can be described thus: In vitro assay 3: AHR-regulated CYP1A1 expression in human cell line (U937, quantitative PCR). Type of experiment: cell-based. The note with it: human monocytic U937 cells, CYP1A1 expression induced with 200 μM KA, 6 hours, qPCR; read-out: Assay 3: Hum CYP1A1 Antagonism IC50. As for the experimental part:
In Vitro Assay 3: AHR-Regulated CYP1A1 Expression in Human Cell Line
To assess the AHR inhibitory activity of the substances described in this application, the ability thereof to antagonize ligand-induced AHR gene regulation in a dose-dependent manner was quantified. For this purpose, quantitative PCR analysis was used to determine expression of the AHR-regulated gene CYP1A1 in a human monocytic U937 cell line upon stimulation with 200 μM KA in the presence and absence of AHR inhibitor. U937 cells were sown at a concentration of 2×10^5 cells/well in 100 μl of growth medium (RPMI 1640, 20% FCS) in 96-well microtitre plates. CYP1A1 expression was induced with 200 μM KA (positive control) in the presence or absence of the substances for 6 hours. Human U937 cells were typically incubated with eight different concentrations of the substances (1 nM, 3 nM, 10 nM, 30 nM, 100 nM, 300 nM, 1 μM and 3 μM) and analyzed in duplicate on the same microtitre plate. After stimulation, cells were lysed with Nucleic Acid Lysis Solution (#4305895, Applied Biosystems) and RNA was isolated using the 6100 Nucleic Acid Preparation Station (Applied Biosystems) and reverse-transcribed to cDNA using SuperScript VILO cDNA synthesis kit (#11754-250, Invitrogen). Unstimulated cells were used as the negative control. Taqman probes for human CYP1A1 (Hs01054797_g1) and human HPRT (Hs02800695_m1) were used to analyze fold expression of CYP1A1 of HPRT. Quantitation was performed on a Taqman SDS7900HT.
In general terms: Real-time PCR tracks product formation cycle by cycle.

Experiment [2] concerns the target T1, AHR. The experiment can be described thus: In vitro assay 1: AHR-luc transactivation assay, antagonism in human cell line (U87 glioblastoma cells, kynurenic acid prestimulated). It counts as cell-based. Further details: U87 glioblastoma cells (ATCC) endogenously expressing AHR; host or cells: U87 glioblastoma cells, stably transfected with DRE-firefly luciferase and renilla reporter constructs only. To be noted: firefly luciferase DRE reporter, 150 μM kynurenic acid, 20 hours, read-out: Assay 1: AHR-luc Hum Antagonism IC50.

pIC50: −log10 of the molar value.

A word on the pIC50: it is the negative decadic logarithm of the IC50, by convention in mol/L. In the case of `O=C(N[C@@H]1CS(=O)(=O)C[C@@H]1O)c1cc(-c2ccc(C(F)(F)F)cc2)nn(-c2cccc(F)c2)c1=O` (single isomer, unassigned) [Example 15, (−)-2-(3-fluorophenyl)-N-[(cis)-4-hydroxy-1,1-dioxidotetrahydro-thiophen-3-yl]-3-oxo-6-[4-(trifluoromethyl)phenyl]-2,3-dihydropyridazine-4-carboxamide], the pIC50 in experiment [1] was 7.43; in experiment [2], 7.75.

Turning to `N=S1(=O)C[C@H](O)[C@H](NC(=O)c2cc(-c3ccc(Cl)cc3)nn(-c3cccc(F)c3)c2=O)C1` (single isomer, unassigned) [Example 45, 6-(4-chlorophenyl)-2-(3-fluorophenyl)-N-[(cis)-4-hydroxy-1-imino-1-oxidotetrahydro-1H-1lambda4-thiophen-3-yl]-3-oxo-2,3-dihydropyridazine-4-carboxamide], the pIC50 in experiment [1] was 6.12; in experiment [2], 7.24.

Take `C[C@@H](C[S+](C)[O-])NC(=O)c1cc(-c2ccc(C(F)(F)F)cc2)nn(-c2cnn(C)c2)c1=O` (single isomer, unassigned) [Example 24]: the pIC50 in experiment [1] and in experiment [2] was 8.12 in each case.

Take `O=C(N[C@@H]1CS(=O)(=O)C[C@@H]1O)c1cc(-c2ccc(C(F)(F)F)cc2)nn(-c2cccc(F)c2)c1=O` (relative stereo) [Example 13, 2-(3-fluorophenyl)-N-[(cis)-4-hydroxy-1,1-dioxidotetrahydro-thiophen-3-yl]-3-oxo-6-[4-(trifluoromethyl)phenyl]-2,3-dihydropyridazine-4-carboxamide]: the pIC50 in experiment [1] was 7.73; in experiment [2] it was 8.25.

Turning to `CSC[C@H](C)NC(=O)c1cc(-c2ccc(Cl)cc2)nn(-c2cnn(C)c2)c1=O` [Example 48, 6-(4-Chlorophenyl)-2-(1-methyl-1H-pyrazol-4-yl)-N-[(2S)-1-(methylsulfanyl)propan-2-yl]-3-oxo-2,3-dihydropyridazine-4-carboxamide], the figures for the negative-log IC50 (pIC50) in experiment [1] and in experiment [2] were 7.52 and 7.81, respectively.

For the molecule `O=C(N[C@H]1CS(=O)(=O)C[C@H]1O)c1cc(-c2ccc(Cl)cc2)nn(-c2cccc(F)c2)c1=O` (racemic) [Example 55, 6-(4-Chlorophenyl)-2-(3-fluorophenyl)-N-[(cis)-4-hydroxy-1,1-dioxidotetrahydrothiophen-3-yl]-3-oxo-2,3-dihydropyridazine-4-carboxamide], the pIC50 in experiment [1] was 7.57; in experiment [2], 7.58.

Take `C[C@@H](CS(C)(=O)=O)NC(=O)c1cc(-c2ccc(Cl)cc2)nn(-c2cnn(C)c2)c1=O` [Example 50, 6-(4-Chlorophenyl)-2-(1-methyl-1H-pyrazol-4-yl)-N-[(2S)-1-(methylsulfonyl)propan-2-yl]-3-oxo-2,3-di hydropyridazine-4-carboxamide]: the figures for the pIC50 in experiment [1] and in experiment [2] were 7.36 and 7.52, respectively.

With `O=C(N[C@H]1CS(=O)(=O)C[C@H]1O)c1cc(-c2ccc(Cl)cc2)nn(-c2cccc(F)c2)c1=O` (single isomer, unassigned) [Example 57, 6-(4-Chlorophenyl)-2-(3-fluorophenyl)-N-[(cis)-4-hydroxy-1,1-dioxidotetrahydrothiophen-3-yl]-3-oxo-2,3-di hydropyridazine-4-carboxamide], the pIC50 in experiment [1] was 7.77; in experiment [2], 8.24.
